molecular target: T1, human orexin-2 (hOX2) receptors (Homo sapiens, UniProt O43614); assay: Intracellular Ca2+ mobilization assay (FLIPR), antagonism of orexin-A; format: cell-based; details: CHO(dHFr−) cells stably expressing hOX2; orexin-A at EC80 as agonist; Kb=IC50/(1+[A]/EC50); read-out: Kb (μM) OX2R (human)
T1 construct: expressed in transfected cells
T1 sequence (O43614 1-444): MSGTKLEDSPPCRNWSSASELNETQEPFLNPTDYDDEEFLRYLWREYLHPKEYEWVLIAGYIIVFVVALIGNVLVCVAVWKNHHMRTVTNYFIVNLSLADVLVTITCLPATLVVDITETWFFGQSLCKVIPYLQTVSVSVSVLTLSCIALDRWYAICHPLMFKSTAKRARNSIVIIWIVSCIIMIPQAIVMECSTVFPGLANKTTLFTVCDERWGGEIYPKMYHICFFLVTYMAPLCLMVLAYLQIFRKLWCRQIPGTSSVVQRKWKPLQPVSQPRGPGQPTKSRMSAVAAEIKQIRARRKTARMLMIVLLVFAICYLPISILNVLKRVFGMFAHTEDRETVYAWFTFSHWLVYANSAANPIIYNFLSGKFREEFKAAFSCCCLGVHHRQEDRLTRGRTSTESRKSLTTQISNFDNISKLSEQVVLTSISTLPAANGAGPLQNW
Protocol: R^7 and R^8 in scheme 5 are hydrogen, and the other substituents are as described above The compounds were investigated in accordance with the test given hereinafter. Intracellular Ca^2+ Mobilization Assay
The Chinese Hamster Ovary (dHFr−) mutant cell line stably expressing human orexin-1 (hOX1) or human orexin-2 (hOX2) receptors were maintained in Dulbecco's Modified Eagle Medium (1×) with GlutaMax™ 1, 4500 mg/L D-Glucose and Sodium Pyruvate (Catalog No. 31966-021, Invitrogen, Carlsbad, Calif.), 5% dialyzed fetal calf serum (Catalog No. 26400-044), 100 μg/ml penicillin and 100 μg/ml streptomycin. The cells were seeded at 5×10^4 cells/well in the poly-D-lysine treated, 96-well, black/clear-bottomed plates (Catalog No. BD356640, BD Biosciences, Palo Alto, Calif.). 24 h later, the cells were loaded for 1 h at 37° C. with 4 μM Flou-4 acetoxymethyl ester (Catalog No. F-14202, Molecular Probes, Eugene, Oreg.) in FLIPR buffer (1×HBSS, 20 mM HEPES, 2.5 mM Probenecid). Hanks' Balanced Salt Solution (HBSS) (10×) (catalog No. 14065-049) and HEPES (1M) (catalog No. 15630-056) were purchased from Invitrogen, Carlsbad, Calif. Probenecid (250 mM) (catalog No. P8761) was from Sigma, Buchs, Switzerland. The cells were washed five times with FLIPR buffer to remove excess dye and intracellular calcium mobilization, [Ca^2+]i were measured using a Fluorometric Imaging Plate Reader (FLIPR-96, Molecular Devices, Menlo Park, Calif.) as described previously (Malherbe et al., Mol. Pharmacol., 64, 823-832, 2003). Orexin A (catalog No. 1455, Toris Cookson Ltd, Bristol, UK) was used as agonist. Orexin A ([…] stock solution in DMSO) was diluted in FLIPR buffer+0.1% BSA. The EC50 and EC80 values of orexin-A were measured daily from standard agonist concentration-response curves in CHO(dHFr−)-OX1R and —OX2R cell lines. All compounds were dissolved in 100% DMSO. Inhibition curves were determined by addition of 11 concentrations (0.0001-10 μM) of inhibitory compounds and using EC80 value of orexin-A as agonist (a concentration which gave 80% of max agonist response, determined daily). The antagonists were applied 25 min (incubation at 37° C.) before the application of the agonist. Responses were measured as peak increase in fluorescence minus basal, normalized to the maximal stimulatory effect induced by EC80 value of orexin-A or orexin-B. Inhibition curves were fitted according to the Hill equation: y=100/(1+(x/IC50)^nH), where nH=slope factor using Excel-fit 4 software (Microsoft). Kb values were calculated according to the following equation Kb=IC50/(1+[A]/EC50) where A is the concentration of agonist added which is very close to agonist EC80 value, and IC50 and EC50 values were derived from the antagonist inhibition and orexin-A or B agonist curves, respectively.

Kb | Structure (SMILES)
0.0122 µM | CNC(=O)[C@H](N[C@H](CCc1ccc(C(F)(F)F)nc1)c1ccc(Cl)c(C)c1)c1ccccc1 (racemic) [Example 243, (S,R)-2-[(S,R)-1-(4-Chloro-3-methyl-phenyl)-3-(6-trifluoromethyl-pyridin-3-yl)-propylamino]-N-methyl-2-phenyl-acetamide]
0.0145 µM | CNC(=O)[C@H](N[C@@H](CCc1ccc(C(F)(F)F)nc1)c1ccc(Cl)c(C)c1)c1ccccc1 (racemic) [Example 244, (S,R)-2-[(R,S)-1-(4-Chloro-3-methyl-phenyl)-3-(6-trifluoromethyl-pyridin-3-yl)-propylamino]-N-methyl-2-phenyl-acetamide]
0.0022 µM | CNC(=O)[C@H](N[C@@H](CCc1ccc(C(F)(F)F)nc1)c1ccc(C)c(C)c1)c1ccccc1 (racemic) [Example 251, (S,R)-2-[(R,S)-1-(3,4-Dimethyl-phenyl)-3-(6-trifluoromethyl-pyridin-3-yl)-propylamino]-N-methyl-2-phenyl-acetamide]
0.0024 µM | CNC(=O)[C@H](N[C@H](CCc1ccc(C(F)(F)F)nc1)c1ccc(C)c(OC)c1)c1ccccc1 (racemic) [Example 252, (S,R)-2-[(S,R)-1-(3-Methoxy-4-methyl-phenyl)-3-(6-trifluoromethyl-pyridin-3-yl)-propylamino]-N-methyl-2-phenyl-acetamide]
0.0034 µM | CNC(=O)[C@H](N[C@@H](CCc1ccc(C(F)(F)F)nc1)c1ccc(C)c(OC)c1)c1ccccc1 (racemic) [Example 253, (S,R)-2-[(R,S)-1-(3-Methoxy-4-methyl-phenyl)-3-(6-trifluoromethyl-pyridin-3-yl)-propylamino]-N-methyl-2-phenyl-acetamide]
0.0175 µM | CNC(=O)[C@H](N[C@@H](CCc1ccc(Cl)nc1)c1ccc(F)c(C)c1)c1ccccc1 (racemic) [Example 266, (S,R)-2-[(R,S)-3-(6-Chloro-pyridin-3-yl)-1-(4-fluoro-3-methyl-phenyl)-propylamino]-N-methyl-2-phenyl-acetamide]
0.0536 µM | CNC(=O)[C@H](N[C@H](CCc1ccc(C(F)(F)F)cc1)c1ccc(OC(F)F)c(OC(F)F)c1)c1ccccc1 (racemic) [Example 290, (S,R)-2-[(S,R)-1-(3,4-Bis-difluoromethoxy-phenyl)-3-(4-trifluoromethyl-phenyl)-propylamino]-N-methyl-2-phenyl-acetamide]
0.013 µM | CNC(=O)[C@H](N[C@@H](CCc1ccc(Cl)nc1)c1ccc(OC(F)F)c(OC(F)F)c1)c1ccccc1 (racemic) [Example 296, (S,R)-2-[(R,S)-1-(3,4-Bis-difluoromethoxy-phenyl)-3-(6-chloro-pyridin-3-yl)-propylamino]-N-methyl-2-phenyl-acetamide]
0.0153 µM | CNC(=O)[C@H](N[C@@H](CCc1cnc(Cl)cn1)c1ccc(OC(F)F)c(OC(F)F)c1)c1ccccc1 (racemic) [Example 297, (S,R)-2-[(R,S)-1-(3,4-Bis-difluoromethoxy-phenyl)-3-(5-chloro-pyrazin-2-yl)-propylamino]-N-methyl-2-phenyl-acetamide]
0.0116 µM | CNC(=O)[C@H](N[C@H](CCc1ccc(C(F)(F)F)cc1)c1cc(C)on1)c1ccccc1 (racemic) [Example 301, (S,R)—N-Methyl-2-[(S,R)-1-(5-methyl-isoxazol-3-yl)-3-(4-trifluoromethyl-phenyl)-propylamino]-2-phenyl-acetamide]
0.0161 µM | CNC(=O)[C@H](N[C@@H](CCc1ccc(C(F)(F)F)cc1)c1cc(C)on1)c1ccccc1 (racemic) [Example 302, (S,R)—N-Methyl-2-[(R,S)-1-(5-methyl-isoxazol-3-yl)-3-(4-trifluoromethyl-phenyl)-propylamino]-2-phenyl-acetamide]
0.0063 µM | CNC(=O)[C@H](N[C@@H](CCc1ccc(Cl)cn1)c1ccc(OC(F)F)c(OC(F)F)c1)c1ccccc1 (racemic) [Example 306, (S,R)-2-[(R,S)-1-(3,4-Bis-difluoromethoxy-phenyl)-3-(5-chloro-pyridin-2-yl)-propylamino]-N-methyl-2-phenyl-acetamide]
0.0086 µM | CNC(=O)[C@H](N[C@@H](CCc1ccc(Cl)cc1)c1ccc(OC)c(OC)c1)c1ccc(Cl)cc1 (racemic) [Example 319, (R,S)-2-(4-Chloro-phenyl)-2-[(S,R)-3-(4-chloro-phenyl)-1-(3,4-dimethoxy-phenyl)-propylamino]-N-methyl-acetamide]
0.0021 µM | CNC(=O)[C@H](N[C@H](CCc1cccc(C(F)(F)F)c1)c1ccc(OC)c(OC)c1)c1ccccc1 (racemic) [Example 320, (R,S)-2-[(R,S)-1-(3,4-Dimethoxy-phenyl)-3-(3-trifluoromethyl-phenyl)-propylamino]-N-methyl-2-phenyl-acetamide]
0.0028 µM | CNC(=O)[C@H](N[C@@H](CCc1cccc(C(F)(F)F)c1)c1ccc(OC)c(OC)c1)c1ccccc1 (racemic) [Example 321, (R,S)-2-[(S,R)-1-(3,4-Dimethoxy-phenyl)-3-(3-trifluoromethyl-phenyl)-propylamino]-N-methyl-2-phenyl-acetamide]
0.01 µM | CNC(=O)[C@H](N[C@@H](CCc1ccc(C(F)(F)F)nc1)c1ccc(F)c(C)c1)c1ccc(C)cc1 (racemic) [Example 334, (R,S)-2-[(S,R)-1-(4-Fluoro-3-methyl-phenyl)-3-(6-trifluoromethyl-pyridin-3-yl)-propylamino]-N-methyl-2-p-tolyl-acetamide]
0.0178 µM | CCNC(=O)[C@H](N[C@@H](CCc1ccc(C(F)(F)F)nc1)c1ccc(F)c(C)c1)c1ccccc1 (racemic) [Example 340, (R,S)—N-Ethyl-2-[(S,R)-1-(4-fluoro-3-methyl-phenyl)-3-(6-trifluoromethyl-pyridin-3-yl)-propylamino]-2-phenyl-acetamide]
0.0164 µM | CNC(=O)[C@H](N[C@@H](CCc1ccc(C(F)(F)F)nc1)c1ccc(F)c(C)c1)c1ccc(OC)cc1 (racemic) [Example 350, (R,S)-2-[(S,R)-1-(4-fluoro-3-methyl-phenyl)-3-(6-trifluoromethyl-pyridin-3-yl)-propylamino]-2-(4-methoxy-phenyl)-N-methyl-acetamide]
0.0044 µM | Cc1cc([C@H](CCc2ccc(C(F)(F)F)nc2)N[C@@H](C(=O)NCCO)c2ccccc2)ccc1F (racemic) [Example 356, (R,S)-2-[(S,R)-1-(4-Fluoro-3-methyl-phenyl)-3-(6-trifluoromethyl-pyridin-3-yl)-propylamino]-N-(2-hydroxy-ethyl)-2-phenyl-acetamide]
0.0124 µM | CNC(=O)[C@H](N[C@@H](CCc1ccc(C)cc1)c1ccc(F)c(C)c1)c1ccccc1 (racemic) [Example 365, (R,S)-2-[(S,R)-1-(4-Fluoro-3-methyl-phenyl)-3-p-tolyl-propylamino]-N-methyl-2-phenyl-acetamide]
0.0017 µM | CNC(=O)[C@H](NC(CCc1ccc(C(F)(F)F)cc1)c1ccc(OC)c(OC)c1)c1ccccc1 (single isomer, unassigned) [Example 6, (R)-2-[(S or R)-1-(3,4-Dimethoxy-phenyl)-3-(4-trifluoromethyl-phenyl)-propylamino]-N-methyl-2-phenyl-acetamide]
0.0142 µM | CNC(=O)[C@H](NC(CCc1ccc(C(F)(F)F)cc1)c1ccc(OC)c(OC)c1)c1ccccc1 (single isomer, unassigned) [Example 7, (R)-2-[(S or R)-1-(3,4-Dimethoxy-phenyl)-3-(4-trifluoromethyl-phenyl)-propylamino]-N-methyl-2-phenyl-acetamide]
